As a reminder, the ED50 is the dose that gives a 50% effect, or the effect in half of the subjects. For orientation: EC50 means the concentration at which the effect is half-maximal. Higher therefore signals a less potent agent.

Experiment [1] has as its system Cavia porcellus. As to the kind of experiment: Tested in vivo for dose required to inhibit PAF-induced bronchoconstriction in guinea pig. The class given is functional.
Experiment [2] is filed under the species Oryctolagus cuniculus. As to the kind of experiment: Concentration required to reduce 50% of maximum platelet aggregation caused by PAF in platelet rich plasma from rabbit in vitro. The class given is functional.
The subject of experiment [3] is Rattus norvegicus. As to the kind of experiment: Tested in vivo for dose required to inhibit PAF-induced hypotension in rat.
In experiment [4] the test system is Rattus norvegicus. Described as above. The source holds these as a separate data set.

With `C=C(COC(=O)CCCCC[n+]1ccccc1)COC(=O)NCCCCCCCCCCCCCCCCCC.[Br-]`, the results for the ED50 in experiment [1] and in experiment [3] were 0.2 mg/kg and 0.5 mg/kg, respectively. A half-maximal effect in experiment [2] (EC50) was put at 500 nM.

Turning to `C=C(COC(=O)CCCCCC[n+]1ccsc1)COC(=O)NCCCCCCCCCCCCCCCCCC.[Br-]`, the median effective dose (ED50) came out at 0.1 mg/kg in experiment [1] and 0.5 mg/kg in experiment [4]. Besides, a half-maximal response in experiment [2] (EC50) required 250 nM.

(Values after ChEMBL document CHEMBL1124131, “Derivatives of 2-methylenepropane-1,3-diol as new antagonists of platelet activating factor” (J Med Chem, 1988).)
